Here are results for 14 compounds from patent US11472803B2, “7-substituted 1-aryl-naphthyridine-3-carboxylic acid amides and use thereof” (Bayer Aktiengesellschaft, priority 2016, dated 2022).

pEC50: −log10 of the molar value.

Assay [1] addresses T1, human M2 receptor (Homo sapiens, UniProt P08172).
T1 construct: expressed in transfected cells; host or cells: CHO-DUKX (CHO-DUKX-M2-GIRK)
T1 sequence (P08172 1-466): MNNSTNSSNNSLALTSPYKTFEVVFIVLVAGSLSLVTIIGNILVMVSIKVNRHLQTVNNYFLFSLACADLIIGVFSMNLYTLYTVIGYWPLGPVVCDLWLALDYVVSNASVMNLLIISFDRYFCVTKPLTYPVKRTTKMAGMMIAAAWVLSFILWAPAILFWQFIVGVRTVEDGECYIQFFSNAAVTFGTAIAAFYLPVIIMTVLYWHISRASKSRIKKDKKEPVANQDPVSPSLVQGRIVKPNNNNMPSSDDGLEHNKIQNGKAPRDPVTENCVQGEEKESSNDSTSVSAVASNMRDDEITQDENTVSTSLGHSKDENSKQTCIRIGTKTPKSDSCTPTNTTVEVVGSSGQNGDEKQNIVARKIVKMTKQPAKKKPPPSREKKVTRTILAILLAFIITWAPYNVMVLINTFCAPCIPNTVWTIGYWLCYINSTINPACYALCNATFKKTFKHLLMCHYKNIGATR
Put plainly: Functional M2-GIRK1/4 activation test: allosteric potency (EC50) and efficiency at EC20 acetylcholine. The conditions noted are these: CHO-DUKX-M2-GIRK cells; for pEC50: voltage-sensitive dye, acetylcholine at EC20, in some cases mean of two or more determinations. Format: cell-based. In a few lines: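 Positive allosteric modulation measured as boosting of an EC20 acetylcholine response: hyperpolarization via GIRK1/4 in CHO-DUKX-M2-GIRK cells, monitored by membrane-potential dye fluorescence over 60 s after agonist, compound preadded. Hill-function fit gives EC50 and efficiency.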

Assay [2] addresses T1, human M2 receptor. Nature of the assay: Functional M2-GIRK1/4 activation test: positive cooperativity (α factor), shift of acetylcholine dose-response curve. The conditions noted are these: Allosteric EC50 shift of acetylcholine 8-point dose-response curve; CHO-DUKX-M2-GIRK cells; α>1 = positive cooperativity. Format: cell-based. The text has this: The binding of orthosteric agonists (endogenous ligand: acetylcholine) to the M2 receptor leads to receptor activation or a change in conformation of the receptor in the manner of a shift in equilibrium in favour of the active receptor conformation.
The agonist-induced change in conformation of the M2 receptor results in a Gαi protein activation. […] Under physiological conditions, the result is then a selective efflux of potassium from the cell along the electrochemical gradient. […] The extent of hyperpolarization can therefore be regarded as a measure of the activation of the M2 receptor.
The test cell used is a recombinant CHO-DUKX cell line which has been stably transfected with cDNA coding for the human M2 receptor and with cDNA coding for both GIRK1/4 subunits (CHO-DUKX-M2-GIRK). The transmembrane potential, or the relative changes in the transmembrane potential as a function of substance addition or M2 activation, is determined by means of a voltage-sensitive dye (FLIPR Membrane Potential Assay Kit Blue, Molecular Devices #R8034) and the measurement of cell fluorescence using a proprietary fluorescence imaging instrument.
In accordance with the desired test concentrations, the substances were pre-diluted in loading buffer (see above).
The sowing medium consisted of MEM alpha medium (supplemented with 5% PCS, 2% Glutamax, no genticin).
For the particular measurement, the medium was removed and the cells were laden with the volt-age-sensitive dye for at least 6 min at room temperature (30 μl of loading buffer per 384-well). This was followed, in a first measurement, by the determination of the resting transmembrane potential for a period of 5 sec in 1 sec increments. Thereafter, 10 μl in each case of the test substances diluted in loading buffer are added, followed by a second measurement to determine the transmembrane potential for a period of 50 sec in 1 sec increments.
Finally, the cells are admixed with 10 μl of agonist solution (acetylcholine dissolved in loading buffer). In contrast to the EC50 determination of the test substances (see B-1.1), however, this is not done using one acetylcholine concentration; instead, every concentration of the test substance is combined with an acetylcholine 8-point dose-response curve. […] The M2-mediated GIRK1/4 activation or hyperpolarization is then monitored in a third measurement over a period of 60 sec in 1 sec increments. The shift in the acetylcholine dose-response curve in the presence of increasing concentrations of the test substance is analysed and quantified by means of GraphPad PRISM (Allosteric EC50 shift). […] Positive cooperativity is the hallmark of a positive allosteric modulator. […] The greater the magnitude of the α value, the greater the extent of cooperativity between orthosteric and allosteric.

Where [3] appears, read: boosting of the acetylcholine effect at EC20 acetylcholine concentration.

The term pEC50 denotes −log10 of the EC50, conventionally taken in molar units. Read a low pEC50 as a high EC50. One may read the Emax as the maximal effect, on the per cent scale that the assay sets.

Regarding `CC[C@H](NC(=O)c1cn(-c2c(F)cc(F)cc2F)c2nc(N3C[C@@H](O)[C@@H](O)C3)c(F)cc2c1=O)C(F)(F)F` [Example 98, 7-[(3R,4S)-3,4-Dihydroxypyrrolidin-1-yl]-6-fluoro-4-oxo-N-[(2S)-1,1,1-trifluorobutan-2-yl]-1-(2,4,6-trifluorophenyl)-1,4-dihydro-1,8-naphthyridine-3-carboxamide], the pEC50 on human M2 receptor [1] was 7.84. The Emax at human M2 receptor [1] (setting [3]) is 98%. For the same compound, the “Cooperativity (alpha factor)” value on human M2 receptor [2] was determined as 50.

Compound `O=C(N[C@@H](C1CC1)C(F)(F)F)c1cn(-c2c(F)cc(F)cc2F)c2nc(N3CC[C@H](O)C3)c(F)cc2c1=O` [Example 108, N-[(1S)-1-Cyclopropyl-2,2,2-trifluoroethyl]-6-fluoro-7-[(3S)-3-hydroxypyrrolidin-1-yl]-4-oxo-1-(2,4,6-trifluorophenyl)-1,4-dihydro-1,8-naphthyridine-3-carboxamide] gave a pEC50 on human M2 receptor [1] of 8.27. The compound further displayed an Emax on human M2 receptor [1] (setting [3]) of 96%. For the same compound, the “Cooperativity (alpha factor)” value on human M2 receptor [2] worked out at 47.

Compound `CCC(NC(=O)c1cn(-c2c(F)cc(F)cc2F)c2nc(N3CC(CO)(CO)C3)c(F)cc2c1=O)C(F)(F)C(F)(F)F` (racemic) [Example 172, 7-[3,3-Bis(hydroxymethyl)azetidin-1-yl]-6-fluoro-4-oxo-N-[1,1,1,2,2-pentafluoropentan-3-yl]-1-(2,4,6-trifluorophenyl)-1,4-dihydro-1,8-naphthyridine-3-carboxamide] showed a pEC50 at human M2 receptor [1] of 8.48. In addition, the Efficiency on human M2 receptor [1] (setting [3]) amounted to 94%. Besides, on human M2 receptor [2], the “Cooperativity (alpha factor)” value worked out at 35.

As for `O=C(NC12CC(C1)C2)c1cn(-c2c(F)cc(F)cc2F)c2nc(N3C[C@@H](O)[C@H](O)C3)c(F)cc2c1=O` [Example 12, N-(bicyclo[1.1.1]pent-1-yl)-7-[(3R,4R)-3,4-dihydroxypyrrolidin-1-yl]-6-fluoro-4-oxo-1-(2,4,6-trifluorophenyl)-1,4-dihydro-1,8-naphthyridine-3-carboxamide], the pEC50 at human M2 receptor [1] was 7.70. The compound also had an Emax at human M2 receptor [1] (setting [3]) of 90%. Also, the “Cooperativity (alpha factor)” value at human M2 receptor [2] is given as 40.

As for `O=C(N[C@@H](C1CC1)C(F)(F)F)c1cn(-c2c(F)cc(F)cc2F)c2nc(N3CC(CO)(CO)C3)c(F)cc2c1=O` [Example 84, 7-[3,3-Bis(hydroxymethyl)azetidin-1-yl]-N-[(1S)-1-cyclopropyl-2,2,2-trifluoroethyl]-6-fluoro-4-oxo-1-(2,4,6-trifluorophenyl)-1,4-dihydro-1,8-naphthyridine-3-carboxamide], on human M2 receptor [1], the pEC50 is 8.08. The Emax on human M2 receptor [1] (setting [3]) stood at 88%. Moreover, the “Cooperativity (alpha factor)” value on human M2 receptor [2] was determined as 39.

Compound `CC(C)(NC(=O)c1cn(-c2c(F)cc(F)cc2F)c2nc(N3C[C@@H](O)[C@H](O)C3)c(F)cc2c1=O)C(F)F` [Example 22, N-(1,1-difluoro-2-methylpropan-2-yl)-7-[(3R,4R)-3,4-dihydroxypyrrolidin-1-yl]-6-fluoro-4-oxo-1-(2,4,6-trifluorophenyl)-1,4-dihydro-1,8-naphthyridine-3-carboxamide] had a pEC50 on human M2 receptor [1] of 8.00. On human M2 receptor [1] (setting [3]), the Emax turned out to be 95%. Besides, at human M2 receptor [2], the “Cooperativity (alpha factor)” value came to 42.

In the case of `O=C(NC(C(F)(F)F)C(F)(F)F)c1cn(-c2c(F)cc(F)cc2F)c2nc(N3C[C@@H](O)[C@H](O)C3)c(F)cc2c1=O` [Example 144, 7-[(3R,4R)-3,4-Dihydroxypyrrolidin-1-yl]-6-fluoro-N-(1,1,1,3,3,3-hexafluoropropan-2-yl)-4-oxo-1-(2,4,6-trifluorophenyl)-1,4-dihydro-1,8-naphthyridine-3-carboxamide], on human M2 receptor [1], the pEC50 was 8.35. The compound further gave an Emax on human M2 receptor [1] (setting [3]) of 98%. Further, the “Cooperativity (alpha factor)” value on human M2 receptor [2] is 67.

As to `O=C(NC(C1CC1)C(F)(F)C(F)(F)F)c1cn(-c2c(F)cc(F)cc2F)c2nc(N3CC(CO)(CO)C3)c(F)cc2c1=O` (single isomer, unassigned) [Example 205, 7-[3,3-bis(hydroxymethyl)azetidin-1-yl]-N-[1-cyclopropyl-2,2,3,3,3-pentafluoropropyl]-6-fluoro-4-oxo-1-(2,4,6-trifluorophenyl)-1,4-dihydro-1,8-naphthyridine-3-carboxamide], at human M2 receptor [1], the pEC50 is 8.51. This compound displayed an Emax on human M2 receptor [1] (setting [3]) of 100%. Besides, the “Cooperativity (alpha factor)” value at human M2 receptor [2] is reported as 25.

`CCN(CC(C)O)c1nc2c(cc1F)c(=O)c(C(=O)N[C@@H](C1CC1)C(F)(F)F)cn2-c1c(F)cc(F)cc1F` (mixture of isomers) [Example 65, N-[(1S)-1-Cyclopropyl-2,2,2-trifluoroethyl]-7-[ethyl(2-hydroxypropyl)amino]-6-fluoro-4-oxo-1-(2,4,6-trifluorophenyl)-1,4-dihydro-1,8-naphthyridine-3-carboxamide] had a pEC50 at human M2 receptor [1] of 7.52. On human M2 receptor [1] (setting [3]), this compound had an Emax of 89%. Further, the “Cooperativity (alpha factor)” value at human M2 receptor [2] worked out at 14.

`O=C(N[C@@H](C1CC1)C(F)(F)F)c1cn(-c2c(F)cc(F)cc2F)c2nc(N3C[C@@H](O)[C@H](O)C3)c(Cl)cc2c1=O` [Example 37, 6-chloro-N-[(1S)-1-cyclopropyl-2,2,2-trifluoroethyl]-7-[(3R,4R)-3,4-dihydroxypyrrolidin-1-yl]-4-oxo-1-(2,4,6-trifluorophenyl)-1,4-dihydro-1,8-naphthyridine-3-carboxamide] showed a negative-log EC50 (pEC50) at human M2 receptor [1] of 8.22. Further, the Emax on human M2 receptor [1] (setting [3]) was 100%. Besides, the “Cooperativity (alpha factor)” value on human M2 receptor [2] came to 38.

In turn, `C[C@H](NC(=O)c1cn(-c2c(F)cc(F)cc2F)c2nc(N3C[C@@H](O)[C@H](O)C3)c(F)cc2c1=O)C(F)(F)F` [Example 18, 7-[(3R,4R)-3,4-dihydroxypyrrolidin-1-yl]-6-fluoro-4-oxo-1-(2,4,6-trifluorophenyl)-N-[(2S)-1,1,1-trifluoropropan-2-yl]-1,4-dihydro-1,8-naphthyridine-3-carboxamide] gave a pEC50 at human M2 receptor [1] of 7.69. The same compound returned an Emax at human M2 receptor [1] (setting [3]) of 99%. The “Cooperativity (alpha factor)” value on human M2 receptor [2] was 43.

On to `O=C(NC(C1CC1)C(F)(F)C(F)(F)F)c1cn(-c2c(F)cc(F)cc2F)c2nc(N3C[C@@H](O)[C@H](O)C3)c(F)cc2c1=O` (single isomer, unassigned) [Example 201], for which the pEC50 at human M2 receptor [1] was 8.80. The Emax at human M2 receptor [1] (setting [3]) is 100%. In addition, the “Cooperativity (alpha factor)” value at human M2 receptor [2] is 39.

Consider `CC(NC(=O)c1cn(-c2c(F)cc(F)cc2F)c2nc(N3CCCC[C@@H]3CO)c(F)cc2c1=O)C(F)(F)C(F)(F)F` (single isomer, unassigned) [Example 185], for which the pEC50 at human M2 receptor [1] is 8.19. The Emax at human M2 receptor [1] (setting [3]) amounted to 83%. Also, on human M2 receptor [2], the “Cooperativity (alpha factor)” value turned out to be 13.

Turning to `CC(C)(NC(=O)c1cn(-c2c(F)cc(F)cc2F)c2nc(N3C[C@@H](O)[C@H](O)C3)c(F)cc2c1=O)C(F)(F)C(F)(F)F` [Example 164, 7-[(3R,4R)-3,4-Dihydroxypyrrolidin-1-yl]-6-fluoro-4-oxo-N-(3,3,4,4,4-pentafluoro-2-methyl-butan-2-yl)-1-(2,4,6-trifluorophenyl)-1,4-dihydro-1,8-naphthyridine-3-carboxamide], on human M2 receptor [1], the pEC50 is 8.70. At human M2 receptor [1] (setting [3]), this compound gave an Emax of 100%. The “Cooperativity (alpha factor)” value on human M2 receptor [2] was 45.
